We go through 32 compounds from BindingDB's records for PubMed 34170694 (China Pharmaceutical University, 2021).

One test deals with T1, Caspase-3 (Homo sapiens, UniProt P42574).
T1 sequence (P42574 whole entry): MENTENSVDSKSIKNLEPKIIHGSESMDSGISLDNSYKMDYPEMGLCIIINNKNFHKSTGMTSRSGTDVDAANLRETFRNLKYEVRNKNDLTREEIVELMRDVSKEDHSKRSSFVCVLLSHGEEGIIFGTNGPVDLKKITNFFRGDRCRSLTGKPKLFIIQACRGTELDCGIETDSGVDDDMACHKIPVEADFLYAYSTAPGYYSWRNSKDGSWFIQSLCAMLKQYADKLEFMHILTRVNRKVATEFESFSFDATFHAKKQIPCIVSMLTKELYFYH
As to the kind of experiment: Activation of caspase 3 in human MDA-MB-231 cells measured after 48 hrs by Plate reader method.

Test [1] is described as follows: Activation of caspase 3 in human MDA-MB-231 cells measured after 48 hrs by Plate reader method.

For orientation: EC50 means the concentration giving half of the maximal effect. The low end stands for an effect from little substance, the high end for a need for much substance. Turning to `C=c1c(O)c(O)cc2c1=CC=C1[C@@]2(C)CC[C@@]2(C)[C@@H]3C[C@](C)(C(=O)O)CC[C@]3(C)CC[C@]12C`, the EC50 at Caspase-3 was 1.4 µM.

In the case of `CC1=C(O)C(=O)C=C2C1=CC=C1[C@@]2(C)CC[C@@]2(C)[C@@H]3C[C@](C)(C(=O)OCc4ccccc4)CC[C@]3(C)CC[C@]12C`, the EC50 in test [1] turned out to be 1.6 µM.

Compound `C#CCOC(=O)[C@]1(C)CC[C@]2(C)CC[C@]3(C)C4=CC=C5C(=CC(=O)C(OC(C)=O)=C5C)[C@]4(C)CC[C@@]3(C)[C@@H]2C1` displayed a half-maximal effective concentration (EC50) in test [1] of 19.3 µM.

Turning to `C#CCOC(=O)[C@]1(C)CC[C@]2(C)CC[C@]3(C)C4=CC=C5C(=CC(=O)C(OC(=O)CCC)=C5C)[C@]4(C)CC[C@@]3(C)[C@@H]2C1`, the EC50 in test [1] worked out at 20.9 µM.

Compound `C#CCOC(=O)[C@]1(C)CC[C@]2(C)CC[C@]3(C)C4=CC=C5C(=CC(=O)C(OC(=O)c6ccc(Br)cc6)=C5C)[C@]4(C)CC[C@@]3(C)[C@@H]2C1` displayed an EC50 in test [1] of 16.4 µM.

`C#CCOC(=O)[C@]1(C)CC[C@]2(C)CC[C@]3(C)C4=CC=C5C(=CC(=O)C(OC(=O)c6ccc(F)cc6)=C5C)[C@]4(C)CC[C@@]3(C)[C@@H]2C1` displayed an EC50 in test [1] of 21.2 µM.

For `C#CCOC(=O)[C@]1(C)CC[C@]2(C)CC[C@]3(C)C4=CC=C5C(=CC(=O)C(OC(=O)C=C)=C5C)[C@]4(C)CC[C@@]3(C)[C@@H]2C1`, in test [1], the concentration giving a half-maximal response (EC50) worked out at 22.1 µM.

`C#CCOC(=O)[C@]1(C)CC[C@]2(C)CC[C@]3(C)C4=CC=C5C(=CC(=O)C(OC(=O)/C=C/C)=C5C)[C@]4(C)CC[C@@]3(C)[C@@H]2C1` displayed a half-maximal effective concentration (EC50) in test [1] of 19.7 µM.

Compound `C#CCOC(=O)[C@]1(C)CC[C@]2(C)CC[C@]3(C)C4=CC=C5C(=CC(=O)C(OC(=O)/C=C/c6ccccc6)=C5C)[C@]4(C)CC[C@@]3(C)[C@@H]2C1` registered a half-maximal effective concentration (EC50) in test [1] of 20.1 µM.

For the compound `C#CCOC(=O)[C@]1(C)CC[C@]2(C)CC[C@]3(C)C4=CC=C5C(=CC(=O)C(OC(=O)/C=C/c6ccccc6F)=C5C)[C@]4(C)CC[C@@]3(C)[C@@H]2C1`, it took 14.1 µM to reach a half-maximal effect in test [1] (EC50).

Consider `C#CCOC(=O)[C@]1(C)CC[C@]2(C)CC[C@]3(C)C4=CC=C5C(=CC(=O)C(OC(=O)/C=C/c6cccc(Cl)c6)=C5C)[C@]4(C)CC[C@@]3(C)[C@@H]2C1`, for which, in test [1], the midpoint of the response, the EC50, lay at 15.7 µM.

`C#CCOC(=O)[C@]1(C)CC[C@]2(C)CC[C@]3(C)C4=CC=C5C(=CC(=O)C(OC(=O)/C=C/c6cccc(C)c6)=C5C)[C@]4(C)CC[C@@]3(C)[C@@H]2C1` showed a concentration giving a half-maximal response (EC50) in test [1] of 17.8 µM.

In test [1], `C#CCOC(=O)[C@]1(C)CC[C@]2(C)CC[C@]3(C)C4=CC=C5C(=CC(=O)C(OC(=O)C(=C)C)=C5C)[C@]4(C)CC[C@@]3(C)[C@@H]2C1` returned an EC50 of 14.9 µM.

In turn, `C#CCOC(=O)[C@]1(C)CC[C@]2(C)CC[C@]3(C)C4=CC=C5C(=CC(=O)C(OC(=O)N(CC)CC)=C5C)[C@]4(C)CC[C@@]3(C)[C@@H]2C1` showed a concentration giving a half-maximal response (EC50) in test [1] of 20.4 µM.

For `C#CCOC(=O)[C@]1(C)CC[C@]2(C)CC[C@]3(C)C4=CC=C5C(=CC(=O)C(OC(=O)N(C)CC)=C5C)[C@]4(C)CC[C@@]3(C)[C@@H]2C1`, it took 18.7 µM to reach a half-maximal effect in test [1] (EC50).

In turn, `C#CCOC(=O)[C@]1(C)CC[C@]2(C)CC[C@]3(C)C4=CC=C5C(=CC(=O)C(OC(=O)N(c6ccccc6)c6ccccc6)=C5C)[C@]4(C)CC[C@@]3(C)[C@@H]2C1` returned an EC50 in test [1] of 19.9 µM.

Take `C#CCOC(=O)[C@]1(C)CC[C@]2(C)CC[C@]3(C)C4=CC=C5C(=CC(=O)C(OC(=O)N6c7ccccc7Sc7ccccc76)=C5C)[C@]4(C)CC[C@@]3(C)[C@@H]2C1`: the concentration giving a half-maximal response (EC50) in test [1] was 18.5 µM.

For the compound `C#CCOC(=O)[C@]1(C)CC[C@]2(C)CC[C@]3(C)C4=CC=C5C(=CC(=O)C(OC(=O)N(C)C)=C5C)[C@]4(C)CC[C@@]3(C)[C@@H]2C1`, the EC50 in test [1] came out at 23.9 µM.

For the compound `C#CCOC(=O)[C@]1(C)CC[C@]2(C)CC[C@]3(C)C4=CC=C5C(=CC(=O)C(OC(=O)N6c7ccccc7CCc7ccccc76)=C5C)[C@]4(C)CC[C@@]3(C)[C@@H]2C1`, a half-maximal effect in test [1] (EC50) was put at 10 µM.

The compound `C#CCOC(=O)[C@]1(C)CC[C@]2(C)CC[C@]3(C)C4=CC=C5C(=CC(=O)C(OC(=O)N6CCCCC6)=C5C)[C@]4(C)CC[C@@]3(C)[C@@H]2C1` returned an EC50 in test [1] of 24.1 µM.

As to `C#CCOC(=O)[C@]1(C)CC[C@]2(C)CC[C@]3(C)C4=CC=C5C(=CC(=O)C(OC(=O)N6CCCC6)=C5C)[C@]4(C)CC[C@@]3(C)[C@@H]2C1`, the concentration for a half-maximal effect (EC50) in test [1] is 24.3 µM.

As to `C#CCOC(=O)[C@]1(C)CC[C@]2(C)CC[C@]3(C)C4=CC=C5C(=CC(=O)C(OC(=O)N6c7ccccc7C=Cc7ccccc76)=C5C)[C@]4(C)CC[C@@]3(C)[C@@H]2C1`, the EC50 in test [1] was 23.1 µM.

As for `C#CCOC(=O)[C@]1(C)CC[C@]2(C)CC[C@]3(C)C4=CC=C5C(=CC(=O)C(OC(=O)N6CCN(C)CC6)=C5C)[C@]4(C)CC[C@@]3(C)[C@@H]2C1`, the concentration for a half-maximal effect (EC50) in test [1] was found to be 20.5 µM.

On to `C#CCOC(=O)[C@]1(C)CC[C@]2(C)CC[C@]3(C)C4=CC=C5C(=CC(=O)C(OC(=O)N(CCC)CCC)=C5C)[C@]4(C)CC[C@@]3(C)[C@@H]2C1`, for which the EC50 in test [1] amounted to 17.5 µM.

For the compound `C#CCOC(=O)[C@]1(C)CC[C@]2(C)CC[C@]3(C)C4=CC=C5C(=CC(=O)C(OC(=O)N(C)CCC)=C5C)[C@]4(C)CC[C@@]3(C)[C@@H]2C1`, the EC50 in test [1] came to 20.5 µM.

On to `C#CCOC(=O)[C@]1(C)CC[C@]2(C)CC[C@]3(C)C4=CC=C5C(=CC(=O)C(OC(=O)N(C)CCCC)=C5C)[C@]4(C)CC[C@@]3(C)[C@@H]2C1`, for which, in test [1], it took 20.3 µM to reach a half-maximal effect (EC50).

For the compound `C#CCOC(=O)[C@]1(C)CC[C@]2(C)CC[C@]3(C)C4=CC=C5C(=CC(=O)C(OC(=O)N(CCCC)CCCC)=C5C)[C@]4(C)CC[C@@]3(C)[C@@H]2C1`, in test [1], the response was half-maximal at 22.3 µM (EC50).

In the case of `C#CCOC(=O)[C@]1(C)CC[C@]2(C)CC[C@]3(C)C4=CC=C5C(=CC(=O)C(OC(=O)N6CCN(c7ccccc7)CC6)=C5C)[C@]4(C)CC[C@@]3(C)[C@@H]2C1`, the EC50 in test [1] came out at 19.3 µM.

Compound `C#CCOC(=O)[C@]1(C)CC[C@]2(C)CC[C@]3(C)C4=CC=C5C(=CC(=O)C(OC(=O)N6CCN(c7ccc(Cl)cc7)CC6)=C5C)[C@]4(C)CC[C@@]3(C)[C@@H]2C1` yielded a concentration for a half-maximal effect (EC50) in test [1] of 20.1 µM.

In test [1], `C#CCOC(=O)[C@]1(C)CC[C@]2(C)CC[C@]3(C)C4=CC=C5C(=CC(=O)C(OC(=O)N6CCN(c7ccccc7Cl)CC6)=C5C)[C@]4(C)CC[C@@]3(C)[C@@H]2C1` showed an EC50 of 20.3 µM.

With `C#CCOC(=O)[C@]1(C)CC[C@]2(C)CC[C@]3(C)C4=CC=C5C(=CC(=O)C(OC(=O)N6CCN(c7cccc(OC)c7)CC6)=C5C)[C@]4(C)CC[C@@]3(C)[C@@H]2C1`, a half-maximal effect in test [1] (EC50) was put at 19.6 µM.

`C#CCOC(=O)[C@]1(C)CC[C@]2(C)CC[C@]3(C)C4=CC=C5C(=CC(=O)C(OC(=O)N6CCN(c7ccccc7OC)CC6)=C5C)[C@]4(C)CC[C@@]3(C)[C@@H]2C1` showed an EC50 in test [1] of 18.2 µM.
